Columns and labels:
Erysiphe graminis = assay: Test for preventive effect on wheat powdery mildew; format: in vivo; conditions: wheat (Norin-61-go) seedlings, 500 ppm active ingredient, preventive treatment; diseased area of first leaves 10 days after inoculation with Erysiphe graminis
How it was run: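 Wheat seedlings (Norin-61-go), grown 8 days, were sprayed with wettable-powder solutions at 500 ppm active ingredient, air-dried, then inoculated by sprinkling Erysiphe graminis spores. Plants were kept at 20-25° C. Diseased area on first leaves was scored 10 days post-inoculation against a rating standard.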

Row | melting point | Structure (SMILES) | Biological effectiveness (Erysiphe graminis)
1 | 135 to 137 °C | COc1cc(OC)nc(-n2c(SC)nc3ccccc32)n1 [Compound I-4, 1-(4,6-dimethoxypyrimidin-2-yl)-2-methylthiobenzimidazole] | –
2 | 114 to 117 °C | COc1cc(OC)nc(-n2c(S(C)(=O)=O)nc3ccccc32)n1 [Compound I-5, 1-(4,6-dimethoxypyrimidin-2-yl)-2-methylsulfonylbenzimidazole] | –
3 | 121 to 122 °C | COc1cc(OC)nc(-n2c(OC)nc3ccccc32)n1 [Compound I-18, 1-(4,6-dimethoxypyrimidin-2-yl)-2-methoxybenzimidazole] | –
4 | 163 to 166 °C | COc1cc(OC)nc(-n2c(C)nc3cc(C)ccc32)n1 [Compound I-186, 1-(4,6-dimethoxypyrimidin-2-yl)-2,5-dimethylbenzimidazole] | A (No diseased area)
5 | 173 to 176 °C | COc1nc(OC)nc(-n2c(C)nc3cc(Cl)ccc32)n1 [Compound I-215, 5-chloro-1-(4,6-dimethoxy-[1,3,5]triazin-2-yl)-2-methylbenzimidazole] | A (No diseased area)
6 | 145 to 148 °C | COc1cc(OC)nc(-n2c(Cl)nc3cc(C)ccc32)n1 [Compound I-258, 2-chloro-1-(4,6-dimethoxypyrimidin-2-yl)-5-methylbenzimidazole] | A (No diseased area)
7 | 146 to 149 °C | COc1nc(OC)nc(-n2c(Cl)nc3cc(Cl)ccc32)n1 [Compound I-277, 2,5-dichloro-1-(4,6-dimethoxy-[1,3,5]triazin-2-yl)benzimidazole] | B (Diseased area of less than 25%)
8 | 93 to 96 °C | COc1cc(OC)nc(-n2c(C(F)(F)F)nc3cc(C)ccc32)n1 [Compound I-298, 1-(4,6-dimethoxypyrimidin-2-yl)-5-methyl-2-trifluoromethylbenzimidazole] | A (No diseased area)
9 | 137 to 140 °C | COc1nc(OC)nc(-n2c(C(F)(F)F)nc3cc(C)ccc32)n1 [Compound I-312, 1-(4,6-dimethoxy-[1,3,5]triazin-2-yl)-5-methyl-2-trifluoromethylbenzimidazole] | A (No diseased area)
10 | > 300 °C | COc1cc(OC)nc(-n2c(N)nc3cc(C)ccc32)n1 [Compound I-362, 2-amino-1-(4,6-dimethoxypyrimidin-2-yl)-5-methylbenzimidazole] | A (No diseased area)
11 | 293 to 296 °C | COc1nc(OC)nc(-n2c(N)nc3cc(Cl)ccc32)n1 [Compound I-368, 2-amino-5-chloro-1-(4,6-dimethoxy-[1,3,5]triazin-2-yl)benzimidazole] | B (Diseased area of less than 25%)
12 | 114 to 116 °C | COc1ccnc(-n2cnc3ccccc32)n1 [Compound I-667, 1-(4-methoxypyrimidin-2-yl)-benzimidazole] | B (Diseased area of less than 25%)
13 | – | CCCc1nc(OC)nc(-n2c(C)nc3cc(C)ccc32)n1 [Compound I-999] | A (No diseased area)
14 | – | CCCc1nc(OC)nc(-n2c(C(F)(F)F)nc3cc(C)ccc32)n1 [Compound I-1004] | A (No diseased area)
15 | – | COc1nc(C2CC2)nc(-n2c(C)nc3cc(C)ccc32)n1 [Compound I-1019] | A (No diseased area)
16 | – | COc1nc(C2CC2)nc(-n2c(C(F)(F)F)nc3cc(C)ccc32)n1 [Compound I-1022] | A (No diseased area)
17 | 176 to 179 °C | CSc1nc(SC)nc(-n2c(C)nc3ccccc32)n1 [Compound I-1042, 1-(4,6-dimethylthio-[1,3,5]triazin-2-yl)-2-methylbenzimidazole] | –
18 | – | CSc1nc(SC)nc(-n2c(C)nc3cc(Cl)ccc32)n1 [Compound I-1043] | A (No diseased area)
19 | – | CSc1nc(SC)nc(-n2c(C(F)(F)F)nc3cc(Cl)ccc32)n1 [Compound I-1046] | A (No diseased area)
20 | – | CSc1nc(C)nc(-n2c(C(F)(F)F)nc3cc(C)ccc32)n1 [Compound I-1048] | A (No diseased area)
21 | – | COc1nc(-c2ccccc2)nc(-n2c(C)nc3cc(C)ccc32)n1 [Compound I-1058] | A (No diseased area)

Row | melting point | Structure (SMILES) | Biological effectiveness (Erysiphe graminis)
22 | – | COc1nc(-c2ccccc2)nc(-n2c(C(F)(F)F)nc3ccc(C)cc32)n1 [Compound I-1059] | A (No diseased area)
23 | – | Cc1nc2cc(Cl)c(Cl)cc2n1-c1nc(Cl)cc(Cl)n1 [Compound I-1064] | B (Diseased area of less than 25%)
24 | > 300 °C | Cc1nc2ccccc2n1-c1nc(Cl)nc(Cl)n1 [Compound I-1066, 1-(4,6-dichloro-[1,3,5]triazin-2-yl)-2-methylbenzimidazole] | –
25 | – | Cc1nc2cc(Cl)ccc2n1-c1nc(N(C)C)nc(N(C)C)n1 [Compound I-1071] | A (No diseased area)
26 | – | Cc1cc(C)nc(-n2cnc3ccccc32)n1 [Compound I-1079] | B (Diseased area of less than 25%)
27 | – | Cc1cc(C(F)(F)F)nc(-n2cnc3ccccc32)n1 [Compound I-1082] | B (Diseased area of less than 25%)
28 | – | CCc1cc(C)nc(-n2cnc3ccccc32)n1 [Compound I-1085] | A (No diseased area)
29 | – | CCc1cc(C)nc(-n2cnc3cc(C)ccc32)n1 [Compound I-1086] | B (Diseased area of less than 25%)
30 | – | CCc1cc(C)nc(-n2c(C)nc3cc(C)ccc32)n1 [Compound I-1087] | A (No diseased area)
31 | – | CCc1cc(C)nc(-n2c(C)nc3cc(Cl)ccc32)n1 [Compound I-1088] | A (No diseased area)
32 | – | CCc1cc(C)nc(-n2c(C)nc3ccc(Cl)cc32)n1 [Compound I-1090] | B (Diseased area of less than 25%)
33 | – | CCc1cc(CC)nc(-n2cnc3ccccc32)n1 [Compound I-1093] | A (No diseased area)
34 | – | CCc1cc(CC)nc(-n2cnc3cc(C)ccc32)n1 [Compound I-1094] | A (No diseased area)
35 | – | CCc1cc(CC)nc(-n2c(C)nc3cc(C)ccc32)n1 [Compound I-1095] | A (No diseased area)
36 | – | CCc1cc(CC)nc(-n2c(C)nc3cc(Cl)ccc32)n1 [Compound I-1096] | A (No diseased area)
37 | – | CCc1cc(CC)nc(-n2c(C)nc3ccc(Cl)cc32)n1 [Compound I-1098] | A (No diseased area)
38 | – | Cc1ccc2c(c1)nc(C)n2-c1nc(C)cc(C2CC2)n1 [Compound I-1103] | B (Diseased area of less than 25%)
39 | – | Cc1cc(C2CC2)nc(-n2c(C)nc3cc(Cl)ccc32)n1 [Compound I-1104] | B (Diseased area of less than 25%)
40 | – | Cc1cc(C2CC2)nc(-n2c(C)nc3ccc(Cl)cc32)n1 [Compound I-1106] | B (Diseased area of less than 25%)
41 | – | CC#Cc1cc(C)nc(-n2cnc3ccccc32)n1 [Compound I-1123] | B (Diseased area of less than 25%)
42 | – | Cc1cc(C#N)nc(-n2c(C)nc3ccccc32)n1 [Compound I-1147] | B (Diseased area of less than 25%)

From patent US6872729B2, “Pyrimidinylbenzimidazole and triazinylbenzimidazole derivatives and agricultural/horticultural fungicides” (Kumiai Chemical Industry Co., Ltd., priority 1998, dated 2005)
